The results in this text go back to EPA's ToxValDB 9.5 (doi:10.2903/j.efsa.2016.4610).

Molecules are shown by their SMILES. In brackets after ≈: the same amount, converted by molar mass.

The subject of one data set is Folsomia candida. Conditions: chronic/long-term; duration: 28 days; reproduction.
The next data set has as its system Tagia sp. Conditions: chronic/long-term; growth.
Another data set concerns Aphidius rhopalosiphi. Put plainly: LR50; higher = less toxic. As to conditions: acute; duration: 48 hours; mortality.
The next data set relates to Typhlodromus pyri. Briefly: LR50; higher = less toxic. As to conditions: chronic/long-term; duration: 14 days; mortality.
The next data set concerns Anas platyrhynchos. As to conditions: chronic/long-term.
A further data set concerns Cyprinodon variegatus. As to conditions: acute; duration: 96 hours; mortality.
A further data set concerns Poephila guttata. As to conditions: acute; oral; unspecified; mortality.
The next data set concerns Pimephales promelas. Conditions: chronic/long-term; duration: 35 days; reproduction.
The test system of the next data set is Xenopus laevis. As to conditions: chronic/long-term; duration: 21 days; growth.
The test system of another data set is Apis mellifera. As to conditions: acute, mortality.
The conditions of data set [1]: chronic.

Regarding `CC(=N)N(C)Cc1ccc(Cl)nc1` [Acetamiprid metabolite (IM-1-5)], the values for the NOEC with Folsomia candida and in the data set with Tagia sp. were 12.5 mg/kg and 62.5 mg/kg, respectively.

Regarding `CC(=NC#N)N(C)Cc1ccc(Cl)nc1` [Acetamiprid], the LR50 in the data set with Aphidius rhopalosiphi stood at 2 g/ha; in the data set on Typhlodromus pyri, 29.7 g/ha. Besides, the NOAEL – broadly, the highest tested level that showed no adverse finding – in the data set with Anas platyrhynchos worked out at 9.5 mg/kg-day; in the data set on Rattus norvegicus (developmental, development), 2.5 mg/kg-day. Moreover, the NOEC with Folsomia candida was 0.27 mg/kg; with Pimephales promelas, 9.4 mg/L; in the data set with Xenopus laevis it was 2.6 mg/L; in data set [1], 0.0011 mg/L. The LD50 in the data set on Rattus norvegicus (acute, oral, mortality) was found to be 146 mg/kg-day; in the data set on Poephila guttata, 5.7 mg/kg-day; in the data set on Apis mellifera (dermal), 9.26 µg/piece; in the data set on Apis mellifera (oral, unspecified) it was 8.85 µg/piece. The LC50 (usually the concentration lethal to half of the exposed cells or organisms) in the data set on Cyprinodon variegatus came out at 100 µg/mL (≈ 449 µM).
